Assay results published in PMC9031227, “Structure-Activity Relationship Investigations of Novel Constrained Chimeric Peptidomimetics of SOCS3 Protein Targeting JAK2” (Pharmaceuticals, 2022).
“Also recorded” adds a separate entry of the source. Where a SMILES comes first, the peptide text is derived from it. Bridges are numbered along the chain shown (N, C = ends). [ ]: non-standard residue; d: D form. S5 = C=CCCC[C@](C)(N)C(=O)O; βAla = NCCC(=O)O

Key:
[1] = Serum stability in fetal bovine serum; format: in vitro ADME; conditions: 37 °C; for metabolised at 3 h, 500 µM: read-out: degraded after 3 h of incubation; for improvement of stability to proteases after 24 h: 25% FBS, 24 h of analysis, compared with the linear peptide
Description: KIRCONG analogues (~1 mg/mL, 500 μM on average), were incubated with fetal bovine serum (FBS) at 25% (w/v) at 37 °C as previously described. At the following time points: 0, 3, 17, 20, 23 and 42 h, 50 µL aliquots of the solutions were mixed with 50 µL of 15% trichloroacetic acid (TCA) to allow the precipitation of serum proteins, they were stored at −20 °C for at least 15 min. After centrifugation (13,000 rpm for 15 min) the supernatants were recovered. Samples were analyzed by RP-HPLC on a HPLC LC-4000 series (Jasco) equipped with UV detector using a C18-Kinetek column from Phenomenex (Milan, Italy), by employing a gradient from 5 to 70% of B (acetonitrile 0.1% TFA) versus A (water 0.1% TFA) in 20 min. Peptide compounds were detected by recording the absorbance at 210 nm and percentages were quantified by assuming 100% their peak areas at t = 0. All stability tests were performed at least in triplicates and reported data are averaged values.
To evaluate if introduced chemical modifications in KIRCONG analogues influence their stabilities to proteolytic degradation, pure compounds were incubated with fetal bovine serum (FBS) and the decrease of chromatographic peaks was followed during time In Figure 4, the area percentages of new derivatives of KIRCONG chim versus time are reported. After 3 h of incubation, KIRCONG chim is degraded by 30% while KIRCONG disulfide of 20% and others less than 10%.
Figure 4 Serum stability assay of KIRCONG chim derivatives. The serum stability was evaluated by incubation in 25% FBS for 42 h. Residual peptide amount is expressed as the percentage of the initial amount versus time.

[2] = biological target: T1, His-tagged Catalytic Domain of JAK2 (residues 826–1132) (Homo sapiens, UniProt O60674); assay: MicroScale Thermophoresis (MST) binding to JAK2 catalytic domain; conditions: RED-tris-NTA labelled His-JAK2 catalytic domain, 25 °C, 50 mM Tris-HCl, 150 mM NaCl, 0.05% Brij35, 1 mM DTT, 10% glycerol, 15% TFE, pH 7.5, Langmuir isotherm fit
T1 construct: His-tagged Catalytic Domain of JAK2 (residues 826–1132); purchased Carna Biosciences
T1 sequence (O60674 826-1132): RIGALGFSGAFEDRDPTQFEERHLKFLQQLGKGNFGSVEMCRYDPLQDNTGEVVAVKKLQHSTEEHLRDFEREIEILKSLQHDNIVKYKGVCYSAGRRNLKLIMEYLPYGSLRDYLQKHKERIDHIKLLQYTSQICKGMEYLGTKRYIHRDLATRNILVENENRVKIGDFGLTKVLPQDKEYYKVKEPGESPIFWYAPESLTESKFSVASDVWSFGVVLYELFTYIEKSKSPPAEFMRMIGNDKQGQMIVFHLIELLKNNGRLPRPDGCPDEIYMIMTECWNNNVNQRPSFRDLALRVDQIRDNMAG
Description: MST experiments were carried out with a Monolith NT 115 system (NanoTemper Technologies, München, Germania) equipped with 40% LED and 40% IR-laser power. […] The protein concentration was adjusted to 200 nM in labeling buffer (Nano Temper Technologies), while the dye concentration was set to 100 nM. Equal volumes (100 μL) of protein and fluorescent dye solutions were mixed and incubated at room temperature in the dark for 30 min. KIRCONG chim analogues were used in the following concentrations: KIRCONG amide 459 μM, KIRCONG disulfide 470 μM, KIRCONG i/i+5 525 μM, and KIRCONG i/i+7 585 μM in labeling buffer. Standard capillaries were employed for analysis, at 25 °C in 50 mM Tris-HCl, 150 mM NaCl, 0.05% Brij35, 1 mM DTT, 10% glycerol, 15% TFE buffer at pH 7.5, as already reported. The equation implemented by the software MO-S002 MO Affinity Analysis, used for fitting data at different concentrations, is based on Langmuir binding isotherm.
To evaluate the ability of KIRCONG analogues to recognize JAK2 catalytic domain, in vitro MST experiments were carried out (Figure 5), keeping JAK2 concentration constant and increasing ligands’ concentrations.

[3] = 25% (w/v) fetal bovine serum, 25% (w/v) FBS, peptide ~1 mg/mL (500 µM on average), TCA precipitation, RP-HPLC C18, UV 210 nm, peak area vs t = 0, mean of at least triplicates

| remaining at 42 h, 500 µM ([1]; 25% (w/v) fetal bovine serum, 25% (w/v) FBS, peptide ~1 mg/mL (500 µM on average), 42 h, TCA precipitation, RP-HPLC C18, UV 210 nm, peak area vs t = 0, mean of at least triplicates, read-out: residual concentration after 42 h) | metabolised at 3 h, 500 µM [1, 3] | Kd [2] | residual concentration after 42 h ([1]; 25% (w/v) FBS, peptide ~1 mg/mL (500 µM on average), 42 h, TCA precipitation, RP-HPLC C18, UV 210 nm, peak area vs t = 0, mean of at least triplicates) | SMILES | KD [2] | improvement of stability to proteases after 24 h [1] |
| --- | --- | --- | --- | --- | --- | --- |
| 85% | – | – | – | CC(C)C[C@H](NC(=O)[C@H](CCC(N)=O)NC(=O)[C@H](Cc1ccc(O)cc1)NC(=O)[C@H](CCC(=O)O)NC(=O)[C@H](CO)NC(=O)[C@H](CCCCN)NC(=O)[C@H](CO)NC(=O)[C@H](CO)NC(=O)[C@@H](N)Cc1ccccc1)C(=O)NCCC(=O)N[C@@]1(C)CCCC=CCCC[C@@](C)(C(=O)N[C@H](C(=O)N[C@H](C(=O)NCC(=O)O)[C@@H](C)O)C(C)C)NC(=O)[C@H](CO)NC(=O)[C@H](Cc2c[nH]c3ccccc23)NC(=O)[C@H](Cc2ccc(O)cc2)NC(=O)[C@H](Cc2ccccc2)NC1=O [KIRCONG i/i+5] (H-FSSKSEYQL[βAla][S5]FYWS[S5]VTG-OH; staple 11-16) | did not allow to obtain KD values; also recorded: No binding | – |
| – | 20% | 600 µM | – | CC(C)C[C@@H]1NC(=O)[C@H](CCC(N)=O)NC(=O)[C@H](Cc2ccc(O)cc2)NC(=O)[C@H](CCC(=O)O)NC(=O)[C@H](CO)NC(=O)[C@H](CCCCN)NC(=O)[C@H](CO)NC(=O)[C@H](CO)NC(=O)[C@H](Cc2ccccc2)NC(=O)CCNC(=O)[C@@H](N)CSSC[C@@H](C(=O)NCC(=O)O)NC(=O)[C@H]([C@@H](C)O)NC(=O)[C@H](C(C)C)NC(=O)[C@H](C)NC(=O)[C@H](CO)NC(=O)[C@H](Cc2c[nH]c3ccccc23)NC(=O)[C@H](Cc2ccc(O)cc2)NC(=O)[C@H](Cc2ccccc2)NC(=O)CCNC(=O)CCNC1=O [KIRCONG disulfide] (H-C[βAla]FSSKSEYQL[βAla][βAla]FYWSAVTCG-OH; disulfide 1-21) | – | do not produce a significant improvement of stability |
| – | 30% | – | completely degraded | CC(=O)N[C@@H](CCCCN)C(=O)NCCC(=O)N[C@@H](Cc1ccccc1)C(=O)N[C@@H](CO)C(=O)N[C@@H](CO)C(=O)N[C@@H](CCCCN)C(=O)N[C@@H](CO)C(=O)N[C@@H](CCC(=O)O)C(=O)N[C@@H](Cc1ccc(O)cc1)C(=O)N[C@@H](CCC(N)=O)C(=O)N[C@@H](CC(C)C)C(=O)NCCC(=O)NCCC(=O)N[C@@H](Cc1ccccc1)C(=O)N[C@@H](Cc1ccc(O)cc1)C(=O)N[C@@H](Cc1c[nH]c2ccccc12)C(=O)N[C@@H](CO)C(=O)N[C@@H](C)C(=O)N[C@H](C(=O)N[C@H](C(N)=O)[C@@H](C)O)C(C)C [KIRCONG chim, reference compound] (Ac-K[βAla]FSSKSEYQL[βAla][βAla]FYWSAVT-NH2) | – | – |
| – | – | 200 µM | – | CC(C)C[C@@H]1NC(=O)[C@H](CCC(N)=O)NC(=O)[C@H](Cc2ccc(O)cc2)NC(=O)[C@H](CCC(=O)O)NC(=O)[C@H](CO)NC(=O)[C@H](CCCCN)NC(=O)[C@H](CO)NC(=O)[C@H](CO)NC(=O)[C@H](Cc2ccccc2)NC(=O)CCNC(=O)[C@@H](N)CCCCNC(=O)CC[C@@H](C(=O)NCC(=O)O)NC(=O)[C@H]([C@@H](C)O)NC(=O)[C@H](C(C)C)NC(=O)[C@H](C)NC(=O)[C@H](CO)NC(=O)[C@H](Cc2c[nH]c3ccccc23)NC(=O)[C@H](Cc2ccc(O)cc2)NC(=O)[C@H](Cc2ccccc2)NC(=O)CCNC(=O)CCNC1=O [KIRCONG amide] (H-K[βAla]FSSKSEYQL[βAla][βAla]FYWSAVTEG-OH; lactam 1-21) | – | do not produce a significant improvement of stability |
